From PMC10720248 (Frontiers in Chemistry, 2023)

Tested on: TLBro
Conditions: pH 8.0, 37°C, 10 mM Tris-HCl, 100 mM NaCl, 10 mM CaCl2

N=C(N)NCCCC(NC(=O)c1ccccc1)C(=O)Nc1ccc([N+](=O)[O-])cc1 (racemic) [DL-BAρNA, N-benzoyl-L-arginine-ρ-nitroanilide]
Km: 850 µM
